As a reminder, the logD is lipophilicity at a set pH, counting ionised and neutral species. Low readings indicate lower lipophilicity, high ones higher lipophilicity. A word on the Papp A→B: it is how fast a substance crosses the layer from the apical side. One may read the bioavailability as dose-corrected exposure relative to a reference, in per cent. Read a low bioavailability as poor availability.

In brackets after ≈: the same amount, converted by molar mass.

Series [1] in a line: Lipophilicity, logD of compound at pH 7.5 by RP-HPLC analysis. The format is physicochemical. As to conditions: buffer.
Series [2] in a line: Thermodynamic solubility of compound at pH 6.5. The format is physicochemical. Particulars: buffer; for solubility thermodynamic: read-out: Therm_solubility.
The nature of series [3]: AUC in Wistar rat at 0.5 mg/kg, iv. The format is ADME, organism-based. As to conditions: in vivo.
Series [4] in a line: Volume of distribution at steady state in Wistar rat at 0.5 mg/kg, iv. The series is classed as ADME, organism-based. As to conditions: in vivo, read-out: Vdss.
Series [5] is described as follows: Apparent permeability across apical to basolateral side in human Caco2 cells at 2 uM after 2 hrs by LC/MS-MS analysis. The format is ADME, cell-based. Particulars: Caco-2. Background: Passage across Caco-2 layers is used to estimate intestinal permeability.
Series [6] is described as follows: Oral bioavailability in Wistar rat at 2 mg/kg. The series is classed as ADME, organism-based. As to conditions: in vivo.
A short description of series [7]: Unbound drug level in plasma of CFA induced C57BL/6N mouse at […], po after 1 hr. The format is ADME, organism-based. Particulars: in vivo.
Series [8] can be described thus: AUC in Wistar rat at 1 mg/kg, iv. The format is ADME, organism-based. As to conditions: in vivo.
A short description of series [9]: Unbound drug level in plasma of CFA induced C57BL/6N mouse at 50 mg/kg, po after 1 hr. The series is classed as ADME, organism-based. As to conditions: in vivo.
Series [10] in a line: Volume of distribution at steady state in Wistar rat at 1 mg/kg, iv. The series is classed as ADME, organism-based. As to conditions: in vivo, read-out: Vdss.
Series [11] is described as follows: Unbound drug level in plasma of CFA induced C57BL/6N mouse at 25 mg/kg, po after 1 hr. The series is classed as ADME, organism-based. Particulars: in vivo.
Series [12] can be described thus: Unbound drug level in plasma of CFA induced C57BL/6N mouse at 50 mg/kg, po after 80 mins. The series is classed as ADME, organism-based. Particulars: in vivo.

With `NS(=O)(=O)c1cc(NC(=O)Cc2ccccc2C(F)(F)F)ccc1Oc1cccc(Cl)c1`, in series [1], the logD was 3.3.
In the case of `NS(=O)(=O)c1cc(NC(=O)Cc2ccccc2Cl)ccc1OCC1CCOCC1`, in series [2], the solubility thermodynamic is 21 µg/mL (≈ 47.8 µM). Also, the AUC in series [3] is 0.37 kg·h/L. Besides, the logD in series [1] was determined as 2.2. Also, in [4], the Vd stood at 1.23 L/kg. Moreover, the Papp A→B at 2 h, 2 µM in [5] is 5.3 ×10⁻⁶ cm/s. In series [6], this molecule returned a bioavailability of 21%.
Consider `NS(=O)(=O)c1cc(NC(=O)Cc2c(F)cccc2Cl)ccc1Oc1cccc(Cl)c1`, for which the solubility thermodynamic in series [2] amounted to 0.7 µg/mL (≈ 1.49 µM).
Regarding `NS(=O)(=O)c1cc(NC(=O)Cc2ccccc2Cl)ccc1Oc1cccc(Cl)c1`, the solubility thermodynamic in series [2] came to 7 µg/mL (≈ 15.5 µM). Further, the logD in series [1] turned out to be 3.
As to `NS(=O)(=O)c1cc(NC(=O)Cc2cc(F)ccc2Cl)ccc1OCC1CCOCC1`, the solubility thermodynamic in series [2] turned out to be 24 µg/mL (≈ 52.5 µM). This molecule also displayed an AUC in series [3] of 1.11 kg·h/L. Besides, in series [1], the pH-dependent lipophilicity (logD) was determined as 2.2. The Vd in series [4] turned out to be 0.82 L/kg. Besides, the apparent permeability from apical to basolateral (Papp A→B) at 2 h, 2 µM in [5] is 4.3 ×10⁻⁶ cm/s. Moreover, in series [6], the bioavailability amounted to 44%.
As for `NS(=O)(=O)c1cc(NC(=O)Cc2ccccc2Cl)ccc1Oc1ccc(-c2nccs2)cc1`, in series [2], the solubility thermodynamic worked out at 1 µg/mL (≈ 2 µM).
On to `NS(=O)(=O)c1cc(NC(=O)Cc2ccccc2Cl)ccc1OCc1ccccc1`, for which the Therm_solubility result in series [2] was “Insoluble”.
For `NS(=O)(=O)c1cc(NC(=O)Cc2ccccc2)ccc1Oc1cccc(Cl)c1` [BAY-1797], the “Cp(f)” value in series [7] is given as 186 nM; in series [9], 672 nM; in series [11], 374 nM; in series [12], 548 nM. The solubility thermodynamic in [2] is 16 µg/mL (≈ 38.4 µM). The molecule further returned an AUC in series [8] of 1.06 kg·h/L. Moreover, in [10], the Vd was 2.77 L/kg. In [1], this molecule displayed a pH-dependent lipophilicity (logD) of 2.8. Also, the Papp A→B at 2 h, 2 µM in series [5] was determined as 13.2 ×10⁻⁶ cm/s. In series [6], the bioavailability came out at 43%.
